Results: patent publication US10912301B2, “Herbicide combinations comprising L-glufosinate and indaziflam” (BASF SE, priority 2015, dated 2021)
Like-named read-outs stand apart in the source and are kept apart here.

Columns and labels:
[1] = system: monocotyledonous and dicotyledonous harmful plant species; test: Post-emergence efficacy of indaziflam alone; format: in vivo; details: product containing 4 g/L of indaziflam, dose rate 12 g/ha
[2] = system: monocotyledonous and dicotyledonous harmful plant species; details: stated as known; cited from earlier work
Poa annua (POAAN) = test: Greenhouse pot trial, single post-emergence treatment, herbicidal activity rating; format: in vivo; details: BBCH growth stage 11-12, 12 g/ha indaziflam
Description: (§1) In separate pots, biological trials were conducted in the greenhouse under identical conditions (apart from the treatment with the different products P1, P2 and P3 mentioned above). Each pot contained the same soil and the same amount of seeds of each of the following weeds (two monocotyledonous and two dicotyledonous harmful plant species (weed species)):
(§2) The Tables 1 to 6 reflect the observations after certain periods of time, indicated in days (referred to as DAA=days after application) after start of treatment with/application of the respective product P1, P2 or P3 mentioned above, each in the amounts indicated below.
(§3) Indaziflam was used in an amount of 12 g/ha.

Stellaria media (STEME) = test: as above; format: in vivo; details: BBCH growth stage 11-12, 12 g/ha indaziflam
Description: as §1, §2, §3

[3] = system: Lolium multiflorum (LOLMU); test: as above; format: in vivo; details: BBCH growth stage 11-12, 12 g/ha indaziflam
Description: as §1, §2, §3

[4] = system: Amaranthus retroflexus (AMARE); test: as above; format: in vivo; details: BBCH growth stage 11-12, 12 g/ha indaziflam
Description: as §1, §2, §3

Cc1ccc2c(c1)[C@H](Nc1nc(N)nc([C@@H](C)F)n1)[C@@H](C)C2 (mixture of isomers) [indaziflam, N^2-[(1R,2S)-2,3-dihydro-2,6-dimethyl-1H-inden-1-yl]-6-[(1RS)-1-fluoroethyl]-1,3,5-triazine-2,4-diamine]
post-emergence efficacy [1]: only very limited post-emergence efficacy
post-emergence efficacy [2]: insufficient post-emergence efficacy
Ratings of herbicidal activity: Regrowth (Poa annua (POAAN)): no herbicidal effect
Ratings of herbicidal activity: Regrowth (Stellaria media (STEME)): no herbicidal effect
Ratings of herbicidal activity: Regrowth [3]: no herbicidal effect
Ratings of herbicidal activity: Regrowth [4]: very weak herbicidal effect starting on day 7 after treatment
